Experimental data as given in PubChem BioAssay (NCI).
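Growth conditions: 96-well plates. Treatment: test compound, 48 hours, 5 concentrations. Analysis: linear interpolation between bracketing concentrations; unreached endpoints set to highest concentration. GI50: concentration for 50% inhibition of growth. TGI marks complete inhibition of growth.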

Assays:
Assay in all cases: inhibition of tumour cell growth, NCI panel, 48 h
[1] = test system: HL-60(TB) leukemia
[2] = test system: ACHN renal
[3] = test system: BT-549 breast
[4] = test system: A549 NSCLC
[5] = test system: NCI-H460 lung
[6] = test system: RXF 393 renal
[7] = test system: NCI-H23 lung
[8] = test system: SK-MEL-2 melanoma
[9] = test system: LOX IMVI melanoma
[10] = test system: PC-3 prostate
[11] = test system: U251 CNS
[12] = test system: CCRF-CEM leukemia
[13] = test system: UACC-257 melanoma
[14] = test system: A498 renal
[15] = test system: IGROV1 ovarian
[16] = test system: CAKI-1 renal
[17] = test system: TK-10 renal
[18] = test system: UACC-62 melanoma
[19] = test system: T-47D breast
[20] = test system: SK-OV-3 ovarian
[21] = test system: MCF7 breast
[22] = test system: SF-268 CNS
[23] = test system: SF-295 CNS
[24] = test system: NCI-H522 lung
[25] = test system: OVCAR-5 ovarian
[26] = test system: NCI/ADR-RES ovarian
[27] = test system: MDA-MB-435
[28] = test system: EKVX NSCLC
[29] = test system: SN12C renal
[30] = test system: SNB-19 CNS
[31] = test system: KM12 colon
[32] = test system: OVCAR-4 ovarian
[33] = test system: COLO 205 colon
[34] = test system: M14 melanoma
[35] = test system: HT29 colon
[36] = test system: NCI-H226 lung
[37] = test system: SK-MEL-5 melanoma
[38] = test system: SK-MEL-28 melanoma
[39] = test system: 786-0 renal
[40] = test system: RPMI-8226 leukemia
[41] = test system: SNB-75 CNS
[42] = test system: HOP-92 NSCLC
[43] = test system: HOP-62 NSCLC
[44] = test system: OVCAR-3 ovarian
[45] = test system: MOLT-4 leukemia
[46] = test system: HCC-2998 colon
[47] = test system: HCT-116 colon
[48] = test system: MALME-3M melanoma
[49] = test system: UO-31 renal
[50] = test system: DU-145 prostate
[51] = test system: SF-539 CNS
[52] = test system: HCT-15 colon
[53] = test system: K-562 leukemia
[54] = test system: SW-620 colon
[55] = test system: MDA-MB-231 breast
[56] = test system: OVCAR-8 ovarian

Question: With N#Cc1c(-c2ccc(Cl)cc2)n(O)c2ccccc12 as the molecule, how does the GI50 [1] read?
Answer: The GI50 was 1.76 µM.

Question: What about the TGI [1] of the same molecule?
Answer: The TGI was 5.69 µM.

Question: What about the GI50 [2] of the same molecule?
Answer: The GI50 was 3.68 µM.

Question: And the TGI [2]?
Answer: The TGI was 91.2 µM.

Question: And the GI50 [3]?
Answer: The GI50 was 1.16 µM.

Question: What about the TGI [3] of the same molecule?
Answer: Its TGI is 7.97 µM.

Question: What about the GI50 [4] of the same molecule?
Answer: Its GI50 is 2.6 µM.

Question: What about the TGI [4] of the same molecule?
Answer: Its TGI is 11.9 µM.

Question: What about the GI50 [5] of the same molecule?
Answer: Its GI50 is 2.82 µM.

Question: What about the TGI [5] of the same molecule?
Answer: The TGI was greater than 100 µM.

Question: And the GI50 [6]?
Answer: Its GI50 is 1.8 µM.

Question: And the TGI [6]?
Answer: The TGI was 5.84 µM.

Question: And the GI50 [7]?
Answer: Its GI50 is 2.02 µM.

Question: And the TGI [7]?
Answer: The TGI was 6.9 µM.

Question: What about the GI50 [8] of the same molecule?
Answer: The GI50 was 1.46 µM.

Question: What about the TGI [8] of the same molecule?
Answer: Its TGI is 5.46 µM.

Question: And the GI50 [9]?
Answer: The GI50 was 2.24 µM.

Question: What about the TGI [9] of the same molecule?
Answer: Its TGI is 13.4 µM.

Question: What about the GI50 [10] of the same molecule?
Answer: The GI50 was 2.85 µM.

Question: What about the TGI [10] of the same molecule?
Answer: The TGI was 20.2 µM.

Question: What about the GI50 [11] of the same molecule?
Answer: Its GI50 is 1.9 µM.

Question: What about the TGI [11] of the same molecule?
Answer: Its TGI is 7.06 µM.

Question: What about the GI50 [12] of the same molecule?
Answer: The GI50 was 3.37 µM.

Question: And the TGI [12]?
Answer: Its TGI is 23.2 µM.

Question: And the GI50 [13]?
Answer: The GI50 was 2.27 µM.

Question: What about the TGI [13] of the same molecule?
Answer: The TGI was 6.31 µM.

Question: And the GI50 [14]?
Answer: Its GI50 is 1.38 µM.

Question: And the TGI [14]?
Answer: Its TGI is 4.09 µM.

Question: What about the GI50 [15] of the same molecule?
Answer: Its GI50 is 3.15 µM.

Question: And the TGI [15]?
Answer: The TGI was 8.52 µM.

Question: And the GI50 [16]?
Answer: Its GI50 is 1.95 µM.

Question: What about the TGI [16] of the same molecule?
Answer: The TGI was 5.2 µM.

Question: What about the GI50 [17] of the same molecule?
Answer: The GI50 was 3.64 µM.

Question: And the TGI [17]?
Answer: Its TGI is 9.16 µM.

Question: What about the GI50 [18] of the same molecule?
Answer: The GI50 was 2.79 µM.

Question: And the TGI [18]?
Answer: Its TGI is 12.3 µM.

Question: What about the GI50 [19] of the same molecule?
Answer: The GI50 was 2.88 µM.

Question: What about the TGI [19] of the same molecule?
Answer: The TGI was 11.1 µM.

Question: And the GI50 [20]?
Answer: The GI50 was 2.17 µM.

Question: And the TGI [20]?
Answer: Its TGI is 5.16 µM.

Question: What about the GI50 [21] of the same molecule?
Answer: The GI50 was 2.67 µM.

Question: What about the TGI [21] of the same molecule?
Answer: Its TGI is greater than 100 µM.

Question: What about the GI50 [22] of the same molecule?
Answer: Its GI50 is 2.6 µM.

Question: And the TGI [22]?
Answer: The TGI was 25.5 µM.

Question: And the GI50 [23]?
Answer: Its GI50 is 2.33 µM.

Question: What about the TGI [23] of the same molecule?
Answer: Its TGI is 6.09 µM.

Question: What about the GI50 [24] of the same molecule?
Answer: The GI50 was 2.11 µM.

Question: What about the TGI [24] of the same molecule?
Answer: The TGI was 6.32 µM.

Question: And the GI50 [25]?
Answer: The GI50 was 4.08 µM.

Question: What about the TGI [25] of the same molecule?
Answer: The TGI was greater than 100 µM.

Question: What about the GI50 [26] of the same molecule?
Answer: The GI50 was 1.43 µM.

Question: What about the TGI [26] of the same molecule?
Answer: Its TGI is 4.2 µM.

Question: What about the GI50 [27] of the same molecule?
Answer: Its GI50 is 0.29 µM.

Question: What about the TGI [27] of the same molecule?
Answer: Its TGI is 1.26 µM.

Question: And the GI50 [28]?
Answer: Its GI50 is 3.11 µM.

Question: What about the TGI [28] of the same molecule?
Answer: Its TGI is 15.7 µM.

Question: And the GI50 [29]?
Answer: Its GI50 is 3.07 µM.

Question: What about the TGI [29] of the same molecule?
Answer: Its TGI is greater than 100 µM.

Question: What about the GI50 [30] of the same molecule?
Answer: Its GI50 is 2.71 µM.

Question: And the TGI [30]?
Answer: The TGI was 80.4 µM.

Question: What about the GI50 [31] of the same molecule?
Answer: The GI50 was 2.17 µM.

Question: What about the TGI [31] of the same molecule?
Answer: Its TGI is 11.7 µM.

Question: What about the GI50 [32] of the same molecule?
Answer: The GI50 was 3.01 µM.

Question: And the TGI [32]?
Answer: The TGI was greater than 100 µM.

Question: What about the GI50 [33] of the same molecule?
Answer: The GI50 was 13.4 µM.

Question: And the TGI [33]?
Answer: The TGI was 30.7 µM.

Question: And the GI50 [34]?
Answer: Its GI50 is 0.803 µM.

Question: And the TGI [34]?
Answer: The TGI was 7.36 µM.

Question: What about the GI50 [35] of the same molecule?
Answer: The GI50 was 4.84 µM.

Question: And the TGI [35]?
Answer: The TGI was 20.9 µM.

Question: What about the GI50 [36] of the same molecule?
Answer: The GI50 was 2.83 µM.

Question: And the TGI [36]?
Answer: Its TGI is 12 µM.

Question: What about the GI50 [37] of the same molecule?
Answer: The GI50 was 0.557 µM.

Question: And the TGI [37]?
Answer: Its TGI is 2.06 µM.

Question: And the GI50 [38]?
Answer: Its GI50 is 1.42 µM.

Question: And the TGI [38]?
Answer: The TGI was 26.4 µM.

Question: What about the GI50 [39] of the same molecule?
Answer: The GI50 was 2.24 µM.

Question: And the TGI [39]?
Answer: The TGI was 7.04 µM.

Question: And the GI50 [40]?
Answer: Its GI50 is 1.6 µM.

Question: What about the TGI [40] of the same molecule?
Answer: Its TGI is 6.48 µM.

Question: What about the GI50 [41] of the same molecule?
Answer: Its GI50 is 1.21 µM.

Question: What about the TGI [41] of the same molecule?
Answer: Its TGI is 4.44 µM.

Question: What about the GI50 [42] of the same molecule?
Answer: Its GI50 is 1.02 µM.

Question: What about the TGI [42] of the same molecule?
Answer: The TGI was 3.5 µM.

Question: And the GI50 [43]?
Answer: The GI50 was 2.23 µM.

Question: And the TGI [43]?
Answer: Its TGI is 7.9 µM.

Question: And the GI50 [44]?
Answer: Its GI50 is 2.6 µM.

Question: And the TGI [44]?
Answer: Its TGI is 6.39 µM.

Question: What about the GI50 [45] of the same molecule?
Answer: Its GI50 is 3.61 µM.

Question: What about the TGI [45] of the same molecule?
Answer: The TGI was 15.5 µM.

Question: And the GI50 [46]?
Answer: The GI50 was 3 µM.

Question: What about the TGI [46] of the same molecule?
Answer: The TGI was 8.01 µM.

Question: And the GI50 [47]?
Answer: Its GI50 is 2.29 µM.

Question: And the TGI [47]?
Answer: Its TGI is 8.69 µM.

Question: And the GI50 [48]?
Answer: Its GI50 is 1.88 µM.

Question: What about the TGI [48] of the same molecule?
Answer: Its TGI is 9.02 µM.

Question: And the GI50 [49]?
Answer: Its GI50 is 2.6 µM.

Question: What about the TGI [49] of the same molecule?
Answer: The TGI was 9.24 µM.

Question: What about the GI50 [50] of the same molecule?
Answer: The GI50 was 3.75 µM.

Question: And the TGI [50]?
Answer: The TGI was greater than 100 µM.

Question: And the GI50 [51]?
Answer: Its GI50 is 2.58 µM.

Question: And the TGI [51]?
Answer: The TGI was 9.83 µM.

Question: What about the GI50 [52] of the same molecule?
Answer: Its GI50 is 1.8 µM.

Question: And the TGI [52]?
Answer: Its TGI is 18.9 µM.

Question: What about the GI50 [53] of the same molecule?
Answer: The GI50 was 0.949 µM.

Question: What about the TGI [53] of the same molecule?
Answer: Its TGI is greater than 100 µM.

Question: What about the GI50 [54] of the same molecule?
Answer: The GI50 was 0.996 µM.

Question: What about the TGI [54] of the same molecule?
Answer: The TGI was 13.2 µM.

Question: And the GI50 [55]?
Answer: Its GI50 is 1.51 µM.

Question: What about the TGI [55] of the same molecule?
Answer: The TGI was 4.38 µM.

Question: What about the GI50 [56] of the same molecule?
Answer: The GI50 was 2.65 µM.

Question: What about the TGI [56] of the same molecule?
Answer: Its TGI is 8.78 µM.
